The values that follow come from patent US20250215029A1 (Recludix Pharma, Inc., priority 2022, published 2025).

Some results are limits rather than exact numbers.

T1 sequence (P40763 whole entry): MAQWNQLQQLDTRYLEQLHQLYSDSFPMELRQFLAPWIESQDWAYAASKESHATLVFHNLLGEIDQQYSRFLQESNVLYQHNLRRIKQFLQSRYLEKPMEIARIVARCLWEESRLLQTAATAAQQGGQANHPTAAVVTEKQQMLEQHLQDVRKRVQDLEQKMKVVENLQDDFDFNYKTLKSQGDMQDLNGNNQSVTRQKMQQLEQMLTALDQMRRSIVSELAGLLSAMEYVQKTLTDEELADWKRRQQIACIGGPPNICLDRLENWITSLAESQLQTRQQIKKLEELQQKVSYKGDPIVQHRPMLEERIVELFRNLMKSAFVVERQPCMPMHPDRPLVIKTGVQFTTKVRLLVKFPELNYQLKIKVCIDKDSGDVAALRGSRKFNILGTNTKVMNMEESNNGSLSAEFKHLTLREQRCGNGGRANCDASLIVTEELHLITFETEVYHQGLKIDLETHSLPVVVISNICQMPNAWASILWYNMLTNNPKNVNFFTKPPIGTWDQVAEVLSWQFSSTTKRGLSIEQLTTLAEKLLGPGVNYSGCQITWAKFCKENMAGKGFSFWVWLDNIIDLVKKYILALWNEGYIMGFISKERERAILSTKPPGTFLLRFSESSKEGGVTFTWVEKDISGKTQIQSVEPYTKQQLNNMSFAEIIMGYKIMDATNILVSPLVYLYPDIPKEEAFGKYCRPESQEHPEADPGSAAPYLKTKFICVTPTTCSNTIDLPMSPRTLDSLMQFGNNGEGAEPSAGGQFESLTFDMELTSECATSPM

The first experiment addresses T1, pY705-STAT3 in PBMC (Homo sapiens, UniProt P40763).
T1 construct: Cryopreserved Peripheral Blood Mononuclear Cells (PBMC) are from AllCells; host or cells: cryopreserved PBMC
The experiment can be described thus: MSD-pSTAT-PBMC Assay (pSTAT3, IL-6 stimulated). Type of experiment: cell-based. The following applies: PBMC, compound 3 hrs, then 10 ng/mL IL-6 for 10 min; Table 115; read-out: STAT3. The method, boiled down: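 Inhibition of cytokine-induced STAT phosphorylation was measured in recovered human PBMC after 3 hrs compound exposure and a 10 min IL-4 (1 ng/mL) or IL-6 (10 ng/mL) challenge. MSD detection of pY641-STAT6 or pY705-STAT3 yielded IC50 values.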
As for `CCCOC(=O)[C@H](C)N[P@@](=O)(Oc1ccccc1)[C@@H](F)c1ccc2sc(C(=O)N[C@H]3C[C@@H](C)C[C@H]4CC[C@@H](C(=O)N5CC(c6cnccc6C)C5)N4C3=O)cc2c1` (single isomer, unassigned) [Compound 1037], the IC50 is less than 100 nM. On to `CCCOC(=O)[C@H](C)N[P@](=O)(Oc1ccccc1)[C@@H](F)c1ccc2sc(C(=O)N[C@H]3CCC[C@H]4CC[C@@H](C(=O)N5CC(c6cnccc6C)C5)N4C3=O)cc2c1` (single isomer, unassigned) [Compound 1035], for which the IC50 was less than 100 nM. The same measure, in the same setting: next, `CCCOC(=O)[C@H](C)NP(=O)(Oc1ccccc1)[C@H](F)c1ccc2sc(C(=O)N[C@H]3CCC[C@H]4CC[C@@H](C(=O)N5CC(c6cncnc6N6CCC6)C5)N4C3=O)cc2c1` (stereo partly shown) [Compound 1076]: less than 100 nM; `CC(C)COC(=O)[C@H](C)NP(=O)(Cc1ccc2sc(C(=O)N[C@H]3CCC[C@H]4CC[C@@H](C(=O)N5CC(c6cccnc6)C5)N4C3=O)cc2c1)Oc1ccccc1` (stereo partly drawn) [Compound 259, isobutyl (((2-(((3S,6S,9aS)-5-oxo-3-(3-(pyridin-3-yl)azetidine-1-carbonyl)octahydro-1H-pyrrolo[1,2-a]azepin-6-yl)carbamoyl)benzo [b]thiophen-5-yl)methyl)(phenoxy)phosphoryl)-L-alaninate]: less than 100 nM; `O=C(SCCOP(=O)(OCCSC(=O)c1ccccc1)C(F)(F)c1ccc2sc(C(=O)N[C@H]3CCC[C@H]4CC[C@@H](C(=O)N5CC(c6cccnc6)C5)N4C3=O)cc2c1)c1ccccc1` [Compound 970, S,S′-((((difluoro(2-(((3S,6S,9aS)-5-oxo-3-(3-(pyridin-3-yl)azetidine-1-carbonyl)octahydro-1H-pyrrolo[1,2-a]azepin-6-yl)carbamoyl)benzo [b]thiophen-5-yl)methyl)-phosphoryl)bis(oxy))bis(ethane-2,1-diyl)) dibenzothioate]: less than 100 nM.

With `CCCOC(=O)[C@H](C)N[P@](=O)(Oc1ccccc1)[C@H](F)c1ccc2sc(C(=O)N[C@H]3CCC[C@H]4CC[C@@H](C(=O)N5CC(c6cnccc6F)C5)N4C3=O)cc2c1` (single isomer, unassigned) [Compound 997], the IC50 is less than 100 nM. For the compound `CCCOC(=O)[C@H](C)N[P@](=O)(Oc1ccccc1)[C@H](F)c1ccc2sc(C(=O)N[C@H]3CCC[C@H]4CC[C@@H](C(=O)N5CC(c6cnccc6F)C5)N4C3=O)cc2c1` (single isomer, unassigned) [Compound 998], the IC50 is less than 100 nM. On the same count and under the same terms, next, `COc1ccncc1C1CN(C(=O)[C@@H]2CC[C@@H]3CCC[C@H](NC(=O)c4cc5cc([C@@H](F)[P@@](=O)(N[C@@H](C)C(=O)OC(C)C)Oc6ccccc6)ccc5s4)C(=O)N32)C1` (single isomer, unassigned) [Compound 955]: less than 100 nM. On to `CCCCOC(=O)[C@H](C)NP(=O)(Cc1ccc2sc(C(=O)N[C@H]3CCC[C@H]4CC[C@@H](C(=O)N5CC(c6cccnc6)C5)N4C3=O)cc2c1)N[C@@H](C)C(=O)OCCCC` [Compound 420, dibutyl 2,2′-((((2-(((3S,6S,9aS)-5-oxo-3-(3-(pyridin-3-yl)azetidine-1-carbonyl)octahydro-1H-pyrrolo[1,2-a]azepin-6-yl)carbamoyl)benzo [b]thiophen-5-yl)methyl)phosphoryl)bis(azanediyl)) (2S,2′S)-dipropionate], for which the IC50 lay within 100 to 1000 nM. The same measure, in the same setting: the result for `CCCOC(=O)[C@H](C)NP(=O)(Oc1ccccc1)[C@@H](F)c1ccc2sc(C(=O)N[C@H]3CCC[C@H]4CC[C@@H](C(=O)N5CC(c6cncnc6N6CCOCC6)C5)N4C3=O)cc2c1` (stereo partly drawn) [Compound 1066, propyl (((R)-fluoro(2-(((3S,6S,9aS)-3-(3-(4-morpholino-pyrimidin-5-yl)azetidine-1-carbonyl)-5-oxooctahydro-1H-pyrrolo[1,2-a]azepin-6-yl)carbamoyl)benzo [b]thiophen-5-yl)methyl)(phenoxy)phosphoryl)-L-alaninate] reads 100 to 1000 nM; that for `COc1ccncc1C1CN(C(=O)[C@@H]2CC[C@@H]3CCC[C@H](NC(=O)c4cc5cc([C@@H](F)[P@](=O)(N[C@@H](C)C(=O)OCC(C)(C)C)Oc6ccccc6)ccc5s4)C(=O)N32)C1` (single isomer, unassigned) [Compound 1057], less than 100 nM. Regarding `CCCOC(=O)[C@H](C)NP(=O)(Oc1ccccc1)[C@H](F)c1ccc2sc(C(=O)N[C@H]3CCC[C@H]4CC[C@@H](C(=O)N5CC(c6cncnc6N6CC[C@H]6COC)C5)N4C3=O)cc2c1` (stereo partly drawn) [Compound 1018, propyl (((S)-fluoro(2-(((3S,6S,9aS)-3-(3-(4-((S)-2-(methoxymethyl)azetidin-1-yl)pyrimidin-5-yl)azetidine-1-carbonyl)-5-oxooctahydro-1H-pyrrolo[1,2-a]azepin-6-yl)carbamoyl)benzo [b]thiophen-5-yl)methyl)(phenoxy)phosphoryl)-L-alaninate], the IC50 was less than 100 nM. Still for that read-out and setting: next, `CCCOC(=O)[C@H](C)NP(=O)(Cc1ccc2sc(C(=O)N[C@H]3CCC[C@H]4CC[C@@H](C(=O)N5CC(c6c(OC)ccnc6C(F)F)C5)N4C3=O)cc2c1)Oc1ccccc1` (stereo partly drawn) [Compound 990, propyl (((2-(((3S,6S, 9aS)-3-(3-(2-(difluoromethyl)-4-methoxypyridin-3-yl)azetidine-1-carbonyl)-5-oxooctahydro-1H-pyrrolo[1,2-a]azepin-6-yl)carbamoyl)benzo [b]thiophen-5-yl)methyl)(phenoxy)phosphoryl)-L-alaninate]: greater than 3000 nM; `COc1ccncc1C1CN(C(=O)[C@@H]2CC[C@@H]3CCC[C@H](NC(=O)c4cc5cc([C@H](F)[P@](=O)(N[C@@H](C)C(=O)OCC(C)(C)C)Oc6ccccc6)ccc5s4)C(=O)N32)C1` (single isomer, unassigned) [Compound 960]: 100 to 1000 nM; `CCCOC(=O)[C@H](C)N[P@@](=O)(Oc1ccccc1)[C@@H](F)c1ccc2sc(C(=O)N[C@H]3C[C@@H](C)C[C@H]4CC[C@@H](C(=O)N5CC(c6cnccc6C)C5)N4C3=O)cc2c1` (single isomer, unassigned) [Compound 1036]: less than 100 nM. Consider `CCCOC(=O)[C@H](C)NP(=O)(Oc1ccccc1)[C@@H](F)c1ccc2sc(C(=O)N[C@H]3CCC[C@H]4CC[C@@H](C(=O)N5CC(c6cnccc6OCC)C5)N4C3=O)cc2c1` (stereo partly drawn) [Compound 494, propyl (((R)-(2-(((3S,6S,9aS)-3-(3-(4-ethoxypyridin-3-yl)azetidine-1-carbonyl)-5-oxooctahydro-1H-pyrrolo[1,2-a]azepin-6-yl)carbamoyl)benzo [b]thiophen-5-yl)fluoromethyl) (phenoxy)phosphoryl)-L-alaninate], for which the IC50 is less than 100 nM. Turning to `CC[C@H](NP(=O)(Cc1ccc2sc(C(=O)N[C@H]3CCC[C@H]4CC[C@@H](C(=O)N5CC(c6cccnc6)C5)N4C3=O)cc2c1)Oc1ccccc1)C(=O)OCC(C)C` (stereo partly drawn) [Compound 947, isobutyl (2S)-2-((((2-(((3S,6S,9aS)-5-oxo-3-(3-(pyridin-3-yl)azetidine-1-carbonyl)octahydro-1H-pyrrolo[1,2-a]azepin-6-yl)carbamoyl)benzo [b]thiophen-5-yl)methyl)(phenoxy)phosphoryl)amino) butanoate], the IC50 was less than 100 nM. As for `COc1ccncc1C1CN(C(=O)[C@@H]2CC[C@@H]3CCC[C@H](NC(=O)c4cc5cc([C@@H](F)[P@](=O)(N[C@@H](C)C(=O)OCc6ccccc6)Oc6ccccc6)ccc5s4)C(=O)N32)C1` (single isomer, unassigned) [Compound 1054], the IC50 was less than 100 nM. As to `CCCOC(=O)[C@H](C)NP(=O)(Oc1ccccc1)C(F)c1ccc2sc(C(=O)N[C@H]3CCCC[C@H]4CC[C@@H](C(=O)N5CC(OCC(F)F)(c6cccnc6)C5)N4C3=O)cc2c1` (stereo partly drawn) [Compound 950, propyl (((2-(((3S,6S,10aS)-3-(3-(2,2-difluoroethoxy)-3-(pyridin-3-yl)azetidine-1-carbonyl)-5-oxodeca-hydropyrrolo [1,2-a]azocin-6-yl)carbamoyl)benzo [b]thiophen-5-yl)fluoromethyl) (phenoxy)phosphoryl)-L-alaninate], the IC50 was less than 100 nM. Turning to `COC[C@H](NP(=O)(Cc1ccc2sc(C(=O)N[C@H]3CCC[C@H]4CC[C@@H](C(=O)N5CC(c6cccnc6)C5)N4C3=O)cc2c1)Oc1ccccc1)C(=O)OC(C)C` (stereo partly drawn) [Compound 392, isopropyl O-methyl-N-(((2-(((3S,6S,9aS)-5-oxo-3-(3-(pyridin-3-yl)azetidine-1-carbonyl)octahydro-1H-pyrrolo[1,2-a]azepin-6-yl)carbamoyl)benzo [b]thiophen-5-yl)methyl)(phenoxy)phosphoryl)-L-serinate], the IC50 was 100 to 1000 nM.

The experiment is the same for the next values; noted with them: STAT3, PBMC, compound 3 hrs, then 10 ng/mL IL-6 for 10 min; Table 115.
`CCCOC(=O)[C@H](C)NP(=O)(Cc1ccc2sc(C(=O)N[C@H]3C[C@H](C)C[C@H]4CC[C@@H](C(=O)N5CC(c6cnccc6N(C)C)C5)N4C3=O)cc2c1)Oc1ccccc1` (stereo partly drawn) [Compound 1079, propyl (((2-(((3S,6S,8S,9aR)-3-(3-(4-(dimethylamino)pyridin-3-yl)azetidine-1-carbonyl)-8-methyl-5-oxooctahydro-1H-pyrrolo[1,2-a]azepin-6-yl)carbamoyl)benzo [b]thiophen-5-yl)methyl)(phenoxy)phosphoryl)-L-alaninate] returned an IC50 of less than 100 nM. In the case of `CCCCOC(=O)[C@H](C)NP(=O)(Cc1ccc2sc(C(=O)N[C@H]3CCC[C@H]4CC[C@@H](C(=O)N5CC(c6cccnc6)C5)N4C3=O)cc2c1)Oc1cccc2ccccc12` (stereo partly drawn) [Compound 1004, butyl ((naphthalen-1-yloxy)((2-(((3S,6S,9aS)-5-oxo-3-(3-(pyridin-3-yl)azetidine-1-carbonyl)octahydro-1H-pyrrolo[1,2-a]azepin-6-yl)carbamoyl)benzo [b]thiophen-5-yl)methyl)phosphoryl)-L-alaninate], the IC50 lay in the range of 100 to 1000 nM.
